# Reference: US11426402B2, “IRE1 activating compounds for use in therapy” (The Scripps Research Institute, priority 2019, dated 2022)
# Tests used:
# [1] = test system: APP; experiment: APP immunoblots of lysates and conditioned media of CHO 7PA2 cells; type: cell-based; conditions: with compound 474
# Procedure: FIGS. 5A-5D. […] Cells were treated for 18 hours, media was then replaced and conditioned in the presence of treatments for 24 hours before harvesting for ELISA assay. Error bars represent SEM for n=3 replicates. Statistics calculated from one-tailed Student's t-test. *p<0.05, **p<0.01, ***p<0.001 (FIG. 5A). Quantification of media and lysate immunoblots from 474 treatment (10 μM) of APP. Error bars represent Standard Deviation for n=3 replicates. Statistics calculated from one-tailed Student's t-test. *p<0.05, **p<0.01 ***p<0.001 (FIG. 5B). Plot showing fraction of total remaining APP at each time point after S35 metabolic labeling of newly synthesized protein, accounting for the sum of APP in lysate and media. Error bars represent Standard Deviation for n=3 replicates. Statistics calculated from one-tailed Student's t-test. *p<0.05, **p<0.01, ***p<0.001 (FIG. 5C). Plot showing fraction of secreted APP collected at 2 hours after metabolic labeling. Error bars represent Standard Deviation for n=3 replicates. Statistics calculated from one-tailed Student's t-test. *p<0.05, **p<0.01, ***p<0.001 (FIG. 5D). […]
# [2] = test system: IRE1/XBP1s signaling pathway; experiment: XBP1-RLuc splicing reporter in HEK293T-REx cells; type: cell-based; conditions: activators 10 μM, 4 μ8c 32 μM, 18 hr
# Procedure: FIG. 2A and FIG. 2B. Activation of RLuc luminescence in HEK293T-Rex cells stably expressing XBP1s-RLuc treated with 10 μM IRE1 activators in the presence or absence of IRE1 inhibitor 4 μ8c (32 μM) for 18 hr. Luminescence is shown as % signal relative to Tg treatment (500 nM; 18 hr). Error bars represent standard deviation for n=3 replicates (FIG. 2A), Activation of RLuc luminescence in HEK293T-Rex cells stably expressing XBP1s-RLuc treated with the indicated concentrations of IRE1 activator compounds for 18 hr. Luminescence is shown as % signal relative to Tg treatment (500 nM; 18 hr) Error bars represent standard deviation for n=3 replicates (FIG. 2B).
# HEK293T-Rex cells incorporating either the XBP1s-Rluc or ERSE-FLuc reporters were collected by trypsinization and resuspended at a density of 500,000 cells per mL. The assay was started by dispensing 5 μL of cell suspension into each well of white, solid-bottom 1536-well plates using a flying reagent dispenser (FRD) and placed into an online incubator for 3 hr. Cells were then treated with 34 nL/well of either test compounds to give final concentrations of 5.17 μM, DMSO (low control, final concentration 0.68%, 0% activation) or 37 μM of Delta-7 thapsigargin (high control, final concentration 500 nM, 100% activation). Plates were incubated for 18 hr at 37° C., removed from the incubator and equilibrated to room temperature for 10 min. Luciferase activity was detected by addition of 5 μL of ONE-Glo reagent (Promega) to each well. After a 10 min incubation time, light emission was measured with the ViewLux reader (PerkinElmer).
# The percent activation of each test compound was calculated as follows: % Activation=100*(Test Compound-Median Low Control)/(Median High Control Median Low Control). Primary screening of the 646,275 compound library at Scripps Florida yielded 10,114 hits for XBP1s Renilla Luciferase activity at ≥13.83% activation by thapsigargin. Compounds that hit in more than 7 screens (promiscuity score) were eliminated, as well as those that elicited HSP70 activation. The top 6,391 remaining compounds (activation≥16.36%) were moved forward to triplicate confirmation screening and HEK TREX CTG cytotoxicity counterscreening. Duplicates were removed from the resulting list, and the top 638 activating compounds (≥15.92%) were moved forward for triplicate titration screening and HEK TREX CTG titration counterscreening.
# A HEK293^T-REx cell line that stably expresses a XBP1-Renilla luciferase (XBP1-RLuc) splicing reporter was used to identify compounds that activated the IRE1/XBP1s signaling pathway^37. Activated IRE1selectively splices mRNA encoded by this reporter, resulting in a frame-shift that allows expression of the active Renilla luciferase enzyme^37. […]
# [3] = test system: secreted Aβ; experiment: Aβ ELISA of media conditioned on CHO 7PA2 cells (V717F APP); type: cell-based; conditions: 4 μ8c 32 μM
# Procedure: FIGS. 5A-5D. […] Cells were treated for 18 hours, media was then replaced and conditioned in the presence of treatments for 24 hours before harvesting for ELISA assay. Error bars represent SEM for n=3 replicates. Statistics calculated from one-tailed Student's t-test. *p<0.05, **p<0.01, ***p<0.001 (FIG. 5A). Quantification of media and lysate immunoblots from 474 treatment (10 μM) of APP. Error bars represent Standard Deviation for n=3 replicates. Statistics calculated from one-tailed Student's t-test. *p<0.05, **p<0.01 ***p<0.001 (FIG. 5B). Plot showing fraction of total remaining APP at each time point after S35 metabolic labeling of newly synthesized protein, accounting for the sum of APP in lysate and media. Error bars represent Standard Deviation for n=3 replicates. Statistics calculated from one-tailed Student's t-test. *p<0.05, **p<0.01, ***p<0.001 (FIG. 5C). Plot showing fraction of secreted APP collected at 2 hours after metabolic labeling. Error bars represent Standard Deviation for n=3 replicates. Statistics calculated from one-tailed Student's t-test. *p<0.05, **p<0.01, ***p<0.001 (FIG. 5D).
# 7PA2 or 7WD10 cells were cultured on 96-well plates (Corning) and treated with IRE1 activating compounds +/−4 μ8c overnight. The medium was then replaced at 50% volume with treatment remaing, culture medium was collected after 24 hours. The medium was analyzed by an AP ELISA as follows. Monoclonal 6E10 anti-Aβ(residues 1-17) mouse IgG1, (Biolegend) was coated in […] carbonate buffer, pH 9.6, at 4° C. overnight on high binding assay black plates (Costar), washed with TBST (tris buffered saline with 0.05% Tween 20) and blocked with 5% non-fat milk in TBST. Samples and standards (condition 7PA2 media) were incubated for 1.5 hr, followed by addition of 4G8 antibody [anti-Aβ residues 17-24, mouse IgG2b (Biolegend)] conjugated to horseradish peroxidase (hrp) and incubated for 1.5 hr at 25° C. After washing, ABM substrate was added, followed by detection with an absorbance plate reader.
# ELISA was used to monitor Aβ in media conditioned on a CHO cell line stably expressing the destabilized, disease-associated V717F APP mutant (CHO^7PA2)^45 treated with or without compounds 198, 474, and 970. […] The reduction in A secretion can be attributed to IRE1 activation because the reduced extracellular accumulation of Aβ is blocked by co-treatment with the active site IRE1 inhibitor 4 μ8c (FIG. 5A).
# [4] = test system: DNAJB9; type: cell-based; conditions: 4 μ8c 32 μM
# [5] = test system: BiP; experiment: qPCR of ATF6-regulated gene BiP in HEK293T cells; type: cell-based
# Procedure: (§1) FIG. 3A-FIG. 3D. […] Error bars show SEM for n=3. […] Error bars show SEM for n=3. […] Error bars show SEM for n=3.
# The compounds were measured for their abilities to induce expression of ER stress-responsive genes CHOP and BiP (or […]) regulated downstream of the PERK and ATF6 UPR signaling pathways, respectively^8, 40. The Tg-dependent expression of these two genes is largely insensitive to 4 μ8c, confirming their induction through an IRE1/XBP1s independent mechanism.
# [6] = target: IRE1 (Homo sapiens, UniProt O75460); experiment: IRE1 phosphorylation by Phos-tag SDS-PAGE and immunoblotting in HEK293T cells; type: cell-based; conditions: co-treatment of Tg (500 nM) and 1 μM APY29
# Chain of IRE1 (O75460 19-977): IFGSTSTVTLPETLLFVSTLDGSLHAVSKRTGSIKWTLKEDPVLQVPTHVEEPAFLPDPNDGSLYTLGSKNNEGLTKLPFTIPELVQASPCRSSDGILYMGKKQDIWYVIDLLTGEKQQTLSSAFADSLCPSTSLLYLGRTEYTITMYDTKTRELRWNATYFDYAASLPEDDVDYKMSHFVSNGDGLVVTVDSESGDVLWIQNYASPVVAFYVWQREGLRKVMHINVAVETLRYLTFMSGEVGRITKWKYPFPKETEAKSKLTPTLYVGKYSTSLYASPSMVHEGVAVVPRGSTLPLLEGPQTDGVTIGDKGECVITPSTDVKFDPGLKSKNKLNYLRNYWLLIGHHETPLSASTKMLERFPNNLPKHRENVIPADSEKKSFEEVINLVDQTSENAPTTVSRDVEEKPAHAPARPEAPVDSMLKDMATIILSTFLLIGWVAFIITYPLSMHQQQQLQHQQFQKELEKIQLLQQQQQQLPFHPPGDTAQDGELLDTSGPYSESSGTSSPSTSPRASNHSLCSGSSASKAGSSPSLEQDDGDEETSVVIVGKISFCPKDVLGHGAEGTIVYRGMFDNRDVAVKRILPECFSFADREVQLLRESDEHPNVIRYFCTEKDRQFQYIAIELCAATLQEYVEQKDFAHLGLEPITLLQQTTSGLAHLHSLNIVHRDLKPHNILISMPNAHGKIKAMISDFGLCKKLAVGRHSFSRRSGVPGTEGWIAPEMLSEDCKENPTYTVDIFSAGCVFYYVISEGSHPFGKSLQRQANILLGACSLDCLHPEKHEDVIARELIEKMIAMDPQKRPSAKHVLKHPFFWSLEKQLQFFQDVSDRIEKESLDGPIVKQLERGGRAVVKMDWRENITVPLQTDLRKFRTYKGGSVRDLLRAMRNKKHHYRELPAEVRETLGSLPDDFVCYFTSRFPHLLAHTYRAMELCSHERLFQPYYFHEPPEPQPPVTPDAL
# Procedure: as §1
# Cell lysates were prepared as previously described in RIPA buffer (50 mM Tris, pH 7.5, 150 mM NaCl, 0.1% SDS, 1% Triton X-100, 0.5% deoxycholate and protease inhibitor cocktail (Roche). Total protein concentration in cellular lysates was normalized using the Bio-Rad protein assay. Lysates were then denatured with 1× Laemmli buffer+100 mM DTT and boiled before being separated by SDS-PAGE. Samples were transferred onto nitrocellulose membranes (Bio-Rad) for immunoblotting and blocked with 5% milk in Tris-buffered saline, 0.5% Tween-20 (TBST) following incubation overnight at 4° C. with primary antibodies. Membranes were washed in TBST, incubated with IR-Dye conjugated secondary antibodies and analyzed using Odyssey Infrared Imaging System (LI-COR Biosciences). Quantification was carried out with LI-COR Image Studio software.
# Compounds that activate IRE1 through binding the IRE1 kinase active site and inhibiting IRE1 autophosphorylation can elicit off-target activity likely associated with binding to other protein kinases.^20, 35, 36 Thus, the purpose of this example was to define the dependence of the present compounds on IRE1 kinase activity. HEK293T cells were treated with compound 198, 474, or 970 in the absence or presence of Tg, and IRE1 phosphorylation was monitored by using Phos-tag SDS-PAGE and immunoblotting. As a control, cells were treated with APY29—an IRE1 kinase site inhibitor that allosterically activates the IRE1 RNAse^20 in the absence or presence of Tg.
# [7] = test system: XBP1 splicing; experiment: XBP1 splicing in HEK293T cells with or without KIRA6; type: cell-based
# Procedure: To amplify the spliced and unspliced XBP1 mRNA, XBP1 primers were used as described previously.^21 PCR products were electrophoresed on 2.5% agarose gel. GAPDH (forward 5′[…]3′, reverse 5′[…]3′) was used as a loading control. The size difference between the spliced and the unspliced XBP1 is 26 nucleotides.
# Next was determined the dependence of compound-dependent IRE1 RNAse activation on autophosphorylation. HEK293T cells were initially treated with the compounds in the absence or presence of KIRA6—a compound that binds the nucleotide binding pocket and inhibits both IRE1 kinase and RNAse activity^36. Co-treatment with KIRA6 blocked compound-dependent XBP1splicing.
# [8] = test system: RIDD targets SCARA3, Bloc1s1 and Col6A1; experiment: IRE1 RIDD activity from the RNAseq dataset in HEK293T cells; type: cell-based, human; conditions: 6 hours
# Procedure: Cells were lysed and total RNA collected using the RNeasy mini kit, according to manufacturer's instructions (Qiagen). Conventional RNA-seq was conducted via BGI Americas on the BGI Proprietary platform, providing single-end 50 bp reads at 20 million reads per sample. Alignment of sequencing data was done using DNAstar Lasergene SeqManPro to the GRCh37. p 13 human genome reference assembly, and assembly data were imported into ArrayStar 12.2 with QSeq (DNAStar Inc.) to quantify the gene expression levels and normalization to reads per kilobase per million (RPKM). Differential expression analysis and statistical significance calculations between different conditions was assessed using “DESeq” in R, compared to vehicle-treated cells, using a standard negative binomial fit of the RPKM data to generate Fold Change quantifications.
# Also evaluated was IRE1 RIDD activity induced by the compounds using the RNAseq dataset. Despite robust IRE1/XBP1s transcriptional activity following 6 hours of treatment, there was no evidence for RIDD after the same 6 hours.
structure (smiles),measurement,setting,value
"Cc1cc(=O)oc2c(C=O)c(O)ccc12 [4 μ8c, reference compound]",effect of 4 μ8c co-treatment on reduced APP levels,[1],reversed
same,effect of 4 μ8c co-administration on compound-dependent XBP1 splicing reporter activation,[2],blocked
same,effect of 4 μ8c co-treatment on reduced extracellular Aβ,[3],blocked
same,effect of 4 μ8c co-treatment on compound-increased DNAJB9 expression,[4],inhibited
same,effect of co-treatment on compound-dependent BiP increase,[5],blocked
"c1cc(Nc2cc(C3CC3)[nH]n2)nc(Nc2ccc3nc[nH]c3c2)n1 [APY29, reference compound]",IRE1 phosphorylation,[6],significant reductions
CC(C)(C)c1nc(-c2ccc(NC(=O)Nc3cccc(C(F)(F)F)c3)c3ccccc23)c2c(N)nccn12 [KIRA6],effect of KIRA6 co-treatment on compound-dependent XBP1 splicing,[7],blocked
"C/C=C(/C)C(=O)O[C@H]1C(C)=C2[C@H]([C@@H]1OC(=O)CCCCCCC)[C@@](C)(OC(C)=O)C[C@H](OC(=O)CCC)[C@@]1(O)[C@H]2OC(=O)[C@@]1(C)O [Tg, thapsigargin]","levels of RIDD targets SCARA3, Bloc1s1 and Col6A1",[8],reduced
